Laboratory results taken from PubChem BioAssay AID2060906 (Molecular Pharmacology Branch, DTP, NCI, 2025).

Test system: 485176-168-R4-J1-PDC complex spheroid growth
Assay: Anticancer human tumor 485176-168-R4-J1-PDC patient-derived pancreatic adenocarcinoma cell line growth inhibition [RAS]
Conditions: for IC50: curve of first compound; for viability, T/C: stronger effect = lower value; active means viability on the fitted dose curve at most 10% of control; inactive means the rest
Method in brief: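 Multi-cell-type spheroids: tumor cells plus HUVEC endothelial cells and mesenchymal stem cells. RAS-pathway inhibitors were combined with targeted agents, each dosed in half-log steps down from clinical Cmax, or from 10 microM when Cmax was unknown.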

[1] = second compound 0.000949 µM, first compound 0.00316 µM
[2] = second compound 0.000949 µM, first compound 0.01 µM
[3] = second compound 0.000949 µM, first compound 0.0316 µM
[4] = second compound 0.000949 µM, first compound 0.1 µM
[5] = second compound 0.003 µM, first compound 0.00316 µM
[6] = second compound 0.003 µM, first compound 0.01 µM
[7] = second compound 0.003 µM, first compound 0.0316 µM
[8] = second compound 0.003 µM, first compound 0.1 µM
[9] = second compound 0.00949 µM, first compound 0.00316 µM
[10] = second compound 0.00949 µM, first compound 0.01 µM
[11] = second compound 0.00949 µM, first compound 0.0316 µM
[12] = second compound 0.00949 µM, first compound 0.1 µM
[13] = second compound 0.03 µM, first compound 0.00316 µM
[14] = second compound 0.03 µM, first compound 0.01 µM
[15] = second compound 0.03 µM, first compound 0.0316 µM
[16] = second compound 0.03 µM, first compound 0.1 µM
[17] = second compound 0.0949 µM, first compound 0.00316 µM
[18] = second compound 0.0949 µM, first compound 0.01 µM
[19] = second compound 0.0949 µM, first compound 0.0316 µM
[20] = second compound 0.0949 µM, first compound 0.1 µM
[21] = second compound 0.3 µM, first compound 0.00316 µM
[22] = second compound 0.3 µM, first compound 0.01 µM
[23] = second compound 0.3 µM, first compound 0.0316 µM
[24] = second compound 0.3 µM, first compound 0.1 µM
[25] = second compound 0.000949 µM, first compound 0.316 µM
[26] = second compound 0.000949 µM, first compound 1 µM
[27] = second compound 0.000949 µM, first compound 3.16 µM
[28] = second compound 0.000949 µM, first compound 10 µM
[29] = second compound 0.003 µM, first compound 0.316 µM
[30] = second compound 0.003 µM, first compound 1 µM
[31] = second compound 0.003 µM, first compound 3.16 µM
[32] = second compound 0.003 µM, first compound 10 µM
[33] = second compound 0.00949 µM, first compound 0.316 µM
[34] = second compound 0.00949 µM, first compound 1 µM
[35] = second compound 0.00949 µM, first compound 3.16 µM
[36] = second compound 0.00949 µM, first compound 10 µM
[37] = second compound 0.03 µM, first compound 0.316 µM
[38] = second compound 0.03 µM, first compound 1 µM
[39] = second compound 0.03 µM, first compound 3.16 µM
[40] = second compound 0.03 µM, first compound 10 µM
[41] = second compound 0.0949 µM, first compound 0.316 µM
[42] = second compound 0.0949 µM, first compound 1 µM
[43] = second compound 0.0949 µM, first compound 3.16 µM
[44] = second compound 0.0949 µM, first compound 10 µM
[45] = second compound 0.3 µM, first compound 0.316 µM
[46] = second compound 0.3 µM, first compound 1 µM
[47] = second compound 0.3 µM, first compound 3.16 µM
[48] = second compound 0.3 µM, first compound 10 µM
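Further: spheroids exposed to compounds for seven days before readout.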
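Wherever viability, T/C is given: luminescence viability expressed relative to DMSO vehicle wells set as 100%.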

CC(C)n1nc(-c2ccc3oc(N)nc3c2)c2c(N)ncnc21 + CCn1c(-c2cc(N3CCN(C)CC3)cnc2C(C)OC)c2c3cc(ccc31)-c1csc(n1)CC(NC(=O)C1CC1C)C(=O)N1CCCC(N1)C(=O)OCC(C)(C)C2
10.9 nM: IC50 (second compound 0.0949 µM)
9.46 nM: IC50 (second compound 0.3 µM)
18.5 nM: IC50 (second compound 0.00949 µM)
inactive: viability, T/C (second compound 0.000949 µM, first compound 0.000316 µM) 98.5% | viability, T/C (second compound 0.000949 µM, first compound 0.001 µM) 93.7% | viability, T/C [1] 76.8% | viability, T/C [2] 70.4% | viability, T/C [3] 37.4% | viability, T/C [4] 19.2% | viability, T/C (second compound 0.003 µM, first compound 0.000316 µM) 96.8% | viability, T/C (second compound 0.003 µM, first compound 0.001 µM) 89.6% | viability, T/C [5] 93.3% | viability, T/C [6] 65.9% | viability, T/C [7] 44.4% | viability, T/C [8] 18.5% | viability, T/C (second compound 0.00949 µM, first compound 0.000316 µM) 97.1% | viability, T/C (second compound 0.00949 µM, first compound 0.001 µM) 89% | viability, T/C [9] 76.9% | viability, T/C [10] 63.9% | viability, T/C [11] 38.4% | viability, T/C [12] 19.1% | viability, T/C (second compound 0.03 µM, first compound 0.000316 µM) 95.9% | viability, T/C (second compound 0.03 µM, first compound 0.001 µM) 81% | viability, T/C [13] 63% | viability, T/C [14] 63.3% | viability, T/C [15] 34.8% | viability, T/C [16] 23.6% | viability, T/C (second compound 0.0949 µM, first compound 0.000316 µM) 94.3% | viability, T/C (second compound 0.0949 µM, first compound 0.001 µM) 84.8% | viability, T/C [17] 61.5% | viability, T/C [18] 57.3% | viability, T/C [19] 30.9% | viability, T/C [20] 17.4% | viability, T/C (second compound 0.3 µM, first compound 0.000316 µM) 81.1% | viability, T/C (second compound 0.3 µM, first compound 0.001 µM) 77% | viability, T/C [21] 68.2% | viability, T/C [22] 50.2% | viability, T/C [23] 25.9% | viability, T/C [24] 16.1%
20.3 nM: IC50 (second compound 0.000949 µM)
13.8 nM: IC50 (second compound 0.03 µM)
23 nM: IC50 (second compound 0.003 µM)

CC1(O)CCCC1n1c(=O)c(C(F)F)cc2cnc(NC3CCN(S(C)(=O)=O)CC3)nc21 (stereo not drawn) + CCn1c(-c2cc(N3CCN(C)CC3)cnc2C(C)OC)c2c3cc(ccc31)-c1csc(n1)CC(NC(=O)C1CC1C)C(=O)N1CCCC(N1)C(=O)OCC(C)(C)C2
1660 nM: IC50 (second compound 0.03 µM)
1390 nM: IC50 (second compound 0.0949 µM)
1720 nM: IC50 (second compound 0.00949 µM)
3440 nM: IC50 (second compound 0.003 µM)
1460 nM: IC50 (second compound 0.000949 µM)
active: viability, T/C [28] 2.12% | viability, T/C [32] 1.93% | viability, T/C [36] 1.63% | viability, T/C [40] 1.78% | viability, T/C [44] 2.07% | viability, T/C [48] 1.81%
inactive: viability, T/C [3] 81.1% | viability, T/C [4] 67.5% | viability, T/C [25] 63% | viability, T/C [26] 48.1% | viability, T/C [27] 48.4% | viability, T/C [7] 73.9% | viability, T/C [8] 56% | viability, T/C [29] 71.5% | viability, T/C [30] 59.7% | viability, T/C [31] 54.9% | viability, T/C [11] 78.6% | viability, T/C [12] 68.6% | viability, T/C [33] 60.8% | viability, T/C [34] 61.5% | viability, T/C [35] 41.5% | viability, T/C [15] 63.7% | viability, T/C [16] 50.4% | viability, T/C [37] 56.6% | viability, T/C [38] 56% | viability, T/C [39] 43.1% | viability, T/C [19] 59.4% | viability, T/C [20] 60.9% | viability, T/C [41] 51.3% | viability, T/C [42] 49.4% | viability, T/C [43] 44.7% | viability, T/C [23] 75.7% | viability, T/C [24] 48.5% | viability, T/C [45] 44% | viability, T/C [46] 58.9% | viability, T/C [47] 43%
1510 nM: IC50 (second compound 0.3 µM)

CCN1CCN(Cc2ccc(Nc3ncc(F)c(-c4cc(F)c5nc(C)n(C(C)C)c5c4)n3)nc2)CC1 + CCn1c(-c2cc(N3CCN(C)CC3)cnc2C(C)OC)c2c3cc(ccc31)-c1csc(n1)CC(NC(=O)C1CC1C)C(=O)N1CCCC(N1)C(=O)OCC(C)(C)C2
929 nM: IC50 (second compound 0.0949 µM)
> 1000 nM: IC50 (second compound 0.000949 µM) | IC50 (second compound 0.003 µM) | IC50 (second compound 0.3 µM)
938 nM: IC50 (second compound 0.03 µM)
inactive: viability, T/C [1] 78.7% | viability, T/C [2] 80.9% | viability, T/C [3] 81% | viability, T/C [4] 67.4% | viability, T/C [25] 73% | viability, T/C [26] 54.8% | viability, T/C [5] 84.9% | viability, T/C [6] 76.5% | viability, T/C [7] 85.2% | viability, T/C [8] 66.9% | viability, T/C [29] 62.7% | viability, T/C [30] 53.8% | viability, T/C [9] 75.3% | viability, T/C [10] 85.8% | viability, T/C [11] 73.4% | viability, T/C [12] 70.2% | viability, T/C [33] 63% | viability, T/C [34] 45.9% | viability, T/C [13] 77.5% | viability, T/C [14] 68.1% | viability, T/C [15] 75.3% | viability, T/C [16] 58.3% | viability, T/C [37] 63.8% | viability, T/C [38] 47.9% | viability, T/C [17] 64.7% | viability, T/C [18] 74.7% | viability, T/C [19] 59.2% | viability, T/C [20] 55.1% | viability, T/C [41] 51.6% | viability, T/C [42] 52% | viability, T/C [21] 54.9% | viability, T/C [22] 76.6% | viability, T/C [23] 70.9% | viability, T/C [24] 65.3% | viability, T/C [45] 53.5% | viability, T/C [46] 51%
756 nM: IC50 (second compound 0.00949 µM)

C[C@@H](NC(=O)c1ncnc(N)c1Cl)c1ncc(C(=O)Nc2cc(C(F)(F)F)c(Cl)cn2)s1 + CCn1c(-c2cc(N3CCN(C)CC3)cnc2C(C)OC)c2c3cc(ccc31)-c1csc(n1)CC(NC(=O)C1CC1C)C(=O)N1CCCC(N1)C(=O)OCC(C)(C)C2
4370 nM: IC50 (second compound 0.3 µM)
inactive: viability, T/C [3] 102% | viability, T/C [4] 92.3% | viability, T/C [25] 83.9% | viability, T/C [26] 67.5% | viability, T/C [27] 83.7% | viability, T/C [28] 83.8% | viability, T/C [7] 86.6% | viability, T/C [8] 97.8% | viability, T/C [29] 92.4% | viability, T/C [30] 84.1% | viability, T/C [31] 71.7% | viability, T/C [32] 58.1% | viability, T/C [11] 92.7% | viability, T/C [12] 90.9% | viability, T/C [33] 74% | viability, T/C [34] 74% | viability, T/C [35] 57.6% | viability, T/C [36] 56.2% | viability, T/C [15] 92.1% | viability, T/C [16] 77.6% | viability, T/C [37] 89.5% | viability, T/C [38] 55.8% | viability, T/C [39] 56.3% | viability, T/C [40] 43.8% | viability, T/C [19] 78.2% | viability, T/C [20] 80.3% | viability, T/C [41] 59.7% | viability, T/C [42] 51.4% | viability, T/C [43] 56.1% | viability, T/C [44] 36.2% | viability, T/C [23] 85.4% | viability, T/C [24] 69.6% | viability, T/C [45] 65.5% | viability, T/C [46] 58.7% | viability, T/C [47] 57% | viability, T/C [48] 42.3%
2380 nM: IC50 (second compound 0.0949 µM)
> 10000 nM: IC50 (second compound 0.000949 µM) | IC50 (second compound 0.003 µM) | IC50 (second compound 0.00949 µM) | IC50 (second compound 0.03 µM)
